# In patent US20240122974A1, “TREATMENT OF MYOPIA” (University of Utah Research Foundation, priority 2021, published 2024):
# Read-outs that look alike come from different tables or passages of the source.
# Columns and labels:
# [1] = tested on: genetic model of guinea pig myopia; experiment: Genetic model of guinea pig myopia, 0.35 mg/ml eye drops twice a day
# Procedure: Copper perchlorate was administered at 0.35 mg/ml to guinea pigs.
# lysyl oxidase (LOX) [2] = target: T1, lysyl oxidase (LOX) (Homo sapiens, UniProt P28300)
# Procedure: To examine LOX activity in normal corneal cells with copper perchlorate and to compare activity with copper sulfate, cultured corneal stroma cells from normal corneas (n=3 each) in 10% fetal bovine serum (FBS) DMEM were either exposed to copper sulfate or copper perchlorate in BSS then filtered through a 0.25 μm filter. Conditioned culture medium underwent a peroxidase-coupled fluorometric activity assay for LOX using Amplex red. As a parallel assay, we added 500 uM aminopropionitrile (BAPN) which can diminish LOX activity completely. The fluorescence of oxidized Amplex red was recorded every 10 minutes using fluorescence plate reader. After subtracting the background fluorescence, the fluorescence intensity was plotted against the incubation time (FIG. 1).
# Target sequence in this assay (P28300 169-417): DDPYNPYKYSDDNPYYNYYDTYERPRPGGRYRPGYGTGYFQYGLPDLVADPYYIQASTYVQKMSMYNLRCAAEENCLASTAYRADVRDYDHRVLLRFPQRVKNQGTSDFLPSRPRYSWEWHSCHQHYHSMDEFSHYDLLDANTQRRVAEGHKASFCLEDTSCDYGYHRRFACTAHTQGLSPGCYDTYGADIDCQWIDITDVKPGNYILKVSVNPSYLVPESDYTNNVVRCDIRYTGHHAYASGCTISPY
# [3] = tested on: sclera of guinea pig pups; settings: 0.08 mg/mL copper perchlorate hexahydrate eye drops twice a day, 8 weeks, n=3, vs untreated sclera, FIG. 3
# Procedure: After eight weeks the sclera was dissected for creep compliance testing. Compliance was tested using an Instrong 5943 Mechanical Testing system with custom grips and a 5 N Futek load cell. Each of the six specimens were loaded to 0.005 kgf, corresponding to an equivalent pressure of 12.0-16.6 mmHg depending on specimen dimensions.
# [4] = tested on: spontaneous myopic albino guinea pigs; experiment: Spontaneous myopic progression in albino guinea pig pups; settings: 0.22 mg/mL twice a day
# Procedure: Spontaneous myopic albino guinea pigs were used as a model of pediatric myopia. […] Pups of albino guinea pigs were used as a pediatric model starting at age 4-7 days. In this group of n=5 pups, all left eyes were untreated (internal control). The other eye (right eye) was treated with 0.22 mg/mL copper perchlorate hexahydrate twice a day. Treatment started at approximately 1 week of age and continued for approximately 2 months. Measurements were taken between 5-7 days of age (baseline-no treatment) and then biweekly. We examined refractive error by streak retinoscopy after dilation, and axial length by Lenstar biometry (Haag-Streit). Cycloplegic refractive error and cornea inflammation was measured by a masked pediatric ophthalmologist.
# [5] = tested on: genetic model of guinea pig myopia; settings: 0.22 mg/ml once a day
# Procedure: 0.22 mg/ml copper perchlorate was administered once a day for approximately 3 months to right eye only. The cycloplegic refraction was measured biweekly by a masked pediatric ophthalmologist.
# [6] = tested on: sclera of guinea pig pups; settings: 0.08 mg/mL copper perchlorate hexahydrate eye drops twice a day, 6-8 weeks, n=5; untreated sclera 3.9×10^−4; p=0.036
# Procedure: Lysyl oxidase converts lysine to allysine, and conjugates it to lysine or hydroxylysine spontaneously, becoming lysinonorleucine (LNL), an established biomarker of collagen crosslinking. […] After 6 weeks the scleras were dissected and analyzed for LNL content using mass spectroscopy (LC-MS). Semi-quantitative mass spectral analysis was performed using a Sciex 6500 Q-Trap (Sciex, Framingham, MA).
# lysyl oxidase (LOX) [7] = target: T1, lysyl oxidase (LOX); settings: normal sclera cells, FIG. 8
# Target sequence in this assay (P28300 169-417, species assumed): as the sequence (P28300 169-417) above
smiles,measurement,setting,value
"O.O.O.O.O.O.[Cu+2].[O-][Cl+3]([O-])([O-])[O-].[O-][Cl+3]([O-])([O-])[O-] [copper perchlorate, copper (II) perchlorate hexahydrate]","myopia at the end of the experiment, treated versus control eyes",[1]; n=5,significantly less myopic
same,"axial elongation, treated versus control eye","[1]; n=5, p<0.05",significantly reduced
same,"vitreous chamber depth elongation, treated versus control eye","[1]; n=5, p<0.05",significantly reduced
same,LOX activity compared with the same molar concentration of copper sulfate,lysyl oxidase (LOX) [2]; concentrations as low as 100 nM,increased LOX activity more than the same molar concentration of copper sulfate
same,induction of LOX activity compared with copper sulfate,"lysyl oxidase (LOX) [2]; keratoconic human cornea stroma cells, concentration as low as 100 nM, FIG. 1B",higher induction of LOX activity than copper sulfate
same,LOX enzyme activity,"lysyl oxidase (LOX) [2]; normal corneal stroma cells, conditioned culture medium, FIG. 1a",dramatically increased LOX enzyme activity in a dose response manner
same,scleral creep compliance,[3],decreased creep compliance
same,"axial length, treated eye (OD) compared to control eye (OS)",[4]; FIG. 5,trend of reducing
same,"vitreous chamber depth, treated eye (OD) compared to control eye (OS)",[4]; FIG. 5,trend of reducing
same,clinical observations of toxicity or discoloration of corneas,"[4]; about 2 months, topical to right eye",no toxicity or discoloration
same,slowing of myopic progression in refractive error,"[4]; within 9 weeks of treatment, treated vs control eye, n=5",48%
same,more myopia developed in untreated left eyes than in treated right eyes (change from baseline),[5]; Day 81,2.27 diopters
same,"slope analysis: refractive error decrease, untreated left eye more than treated right eye","[5]; about 3 months, right eye only, p=0.0189",0.027(sd=0.011) per day
same,LNL response in treated sclera,[6],0.00069 µg/mg
same,LOX enzyme activity,lysyl oxidase (LOX) [7],dramatically increased LOX enzyme activity in a dose response manner
